In US20220281848A1, “PYRAZOLE-SUBSTITUTED PYRROLIDINONES AS HERBICIDES” (FMC Corporation, priority 2019, published 2022):

Test system: plants
Test: Test D pre-emergence, other plants of Tables D1 and D3
Format: in vivo
Details: preemergent, 20 DAA
Summary of the method: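 Seeds treated with herbicide safener; sown in soil; glasshouse, 16 h light, 65% humidity. Sprayed day 1 (pre) or ~day 12 (post). Spray in 0.2% v/v adjuvant. Scored 0–100 damage: 20 DAA pre, 15 d post.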

CN1CC(c2cc(C(F)(F)F)n(C)n2)C(C(=O)Nc2ccc(F)nc2F)C1=O (racemic) [Compound 22]
damage to plant (100=total damage to plant; 0=no damage to plant), ABUTH (rate 15): 0 | damage to plant (100=total damage to plant; 0=no damage to plant), ABUTH (rate 30): 0 | damage to plant (100=total damage to plant; 0=no damage to plant), ABUTH (rate 60): 0 | damage to plant (100=total damage to plant; 0=no damage to plant), ABUTH (rate 130): 0 | damage to plant (100=total damage to plant; 0=no damage to plant), ABUTH (rate 250): 0 | damage to plant (100=total damage to plant; 0=no damage to plant), ABUTH (rate 500): 0 | damage to plant (100=total damage to plant; 0=no damage to plant), AMARE (rate 15): 0 | damage to plant (100=total damage to plant; 0=no damage to plant), AMARE (rate 30): 0 | damage to plant (100=total damage to plant; 0=no damage to plant), AMARE (rate 60): 0 | damage to plant (100=total damage to plant; 0=no damage to plant), AMARE (rate 130): 0 | damage to plant (100=total damage to plant; 0=no damage to plant), AMARE (rate 250): 0 | damage to plant (100=total damage to plant; 0=no damage to plant), AMARE (rate 500): 0 | damage to plant (100=total damage to plant; 0=no damage to plant), BIDPI (rate 15): 0 | damage to plant (100=total damage to plant; 0=no damage to plant), BIDPI (rate 30): 0 | damage to plant (100=total damage to plant; 0=no damage to plant), BIDPI (rate 60): 0 | damage to plant (100=total damage to plant; 0=no damage to plant), BIDPI (rate 130): 0 | damage to plant (100=total damage to plant; 0=no damage to plant), BIDPI (rate 250): 0 | damage to plant (100=total damage to plant; 0=no damage to plant), BIDPI (rate 500): 0 | damage to plant (100=total damage to plant; 0=no damage to plant), BRAPL (rate 15): 0 | damage to plant (100=total damage to plant; 0=no damage to plant), BRAPL (rate 30): 20 | damage to plant (100=total damage to plant; 0=no damage to plant), BRAPL (rate 60): 70 | damage to plant (100=total damage to plant; 0=no damage to plant), BRAPL (rate 130): 80 | damage to plant (100=total damage to plant; 0=no damage to plant), BRAPL (rate 250): 90 | damage to plant (100=total damage to plant; 0=no damage to plant), BRAPL (rate 500): 90 | damage to plant (100=total damage to plant; 0=no damage to plant), CYPES (rate 15): 0 | damage to plant (100=total damage to plant; 0=no damage to plant), CYPES (rate 30): 0 | damage to plant (100=total damage to plant; 0=no damage to plant), CYPES (rate 60): 0 | damage to plant (100=total damage to plant; 0=no damage to plant), CYPES (rate 130): 0 | damage to plant (100=total damage to plant; 0=no damage to plant), CYPES (rate 250): 0 | damage to plant (100=total damage to plant; 0=no damage to plant), CYPES (rate 500): 0 | damage to plant (100=total damage to plant; 0=no damage to plant), DIGSA (rate 15): 0 | damage to plant (100=total damage to plant; 0=no damage to plant), DIGSA (rate 30): 20 | damage to plant (100=total damage to plant; 0=no damage to plant), DIGSA (rate 60): 80 | damage to plant (100=total damage to plant; 0=no damage to plant), DIGSA (rate 130): 80 | damage to plant (100=total damage to plant; 0=no damage to plant), DIGSA (rate 250): 100 | damage to plant (100=total damage to plant; 0=no damage to plant), DIGSA (rate 500): 100 | damage to plant (100=total damage to plant; 0=no damage to plant), ECHCG (rate 15): 0 | damage to plant (100=total damage to plant; 0=no damage to plant), ECHCG (rate 30): 0 | damage to plant (100=total damage to plant; 0=no damage to plant), ECHCG (rate 60): 60 | damage to plant (100=total damage to plant; 0=no damage to plant), ECHCG (rate 130): 80 | damage to plant (100=total damage to plant; 0=no damage to plant), ECHCG (rate 250): 90 | damage to plant (100=total damage to plant; 0=no damage to plant), ECHCG (rate 500): 100 | damage to plant (100=total damage to plant; 0=no damage to plant), ELEIN (rate 15): 0 | damage to plant (100=total damage to plant; 0=no damage to plant), ELEIN (rate 30): 0 | damage to plant (100=total damage to plant; 0=no damage to plant), ELEIN (rate 60): 0 | damage to plant (100=total damage to plant; 0=no damage to plant), ELEIN (rate 130): 0 | damage to plant (100=total damage to plant; 0=no damage to plant), ELEIN (rate 250): 0 | damage to plant (100=total damage to plant; 0=no damage to plant), ELEIN (rate 500): 0 | damage to plant (100=total damage to plant; 0=no damage to plant), EPHHL (rate 15): 0 | damage to plant (100=total damage to plant; 0=no damage to plant), EPHHL (rate 30): 0 | damage to plant (100=total damage to plant; 0=no damage to plant), EPHHL (rate 60): 0 | damage to plant (100=total damage to plant; 0=no damage to plant), EPHHL (rate 130): 0 | damage to plant (100=total damage to plant; 0=no damage to plant), EPHHL (rate 250): 0 | damage to plant (100=total damage to plant; 0=no damage to plant), EPHHL (rate 500): 0 | damage to plant (100=total damage to plant; 0=no damage to plant), GLXMA (rate 15): 0 | damage to plant (100=total damage to plant; 0=no damage to plant), GLXMA (rate 30): 0 | damage to plant (100=total damage to plant; 0=no damage to plant), GLXMA (rate 60): 0 | damage to plant (100=total damage to plant; 0=no damage to plant), GLXMA (rate 130): 0 | damage to plant (100=total damage to plant; 0=no damage to plant), GLXMA (rate 250): 0 | damage to plant (100=total damage to plant; 0=no damage to plant), GLXMA (rate 500): 0 | damage to plant (100=total damage to plant; 0=no damage to plant), IPOHE (rate 15): 0 | damage to plant (100=total damage to plant; 0=no damage to plant), IPOHE (rate 30): 0 | damage to plant (100=total damage to plant; 0=no damage to plant), IPOHE (rate 60): 0 | damage to plant (100=total damage to plant; 0=no damage to plant), IPOHE (rate 130): 0 | damage to plant (100=total damage to plant; 0=no damage to plant), IPOHE (rate 250): 0 | damage to plant (100=total damage to plant; 0=no damage to plant), IPOHE (rate 500): 0 | damage to plant (100=total damage to plant; 0=no damage to plant), ORYSA (rate 15): 0 | damage to plant (100=total damage to plant; 0=no damage to plant), ORYSA (rate 30): 0 | damage to plant (100=total damage to plant; 0=no damage to plant), ORYSA (rate 60): 0 | damage to plant (100=total damage to plant; 0=no damage to plant), ORYSA (rate 130): 0 | damage to plant (100=total damage to plant; 0=no damage to plant), ORYSA (rate 250): 0 | damage to plant (100=total damage to plant; 0=no damage to plant), ORYSA (rate 500): 0 | damage to plant (100=total damage to plant; 0=no damage to plant), PANMI (rate 15): 0 | damage to plant (100=total damage to plant; 0=no damage to plant), PANMI (rate 30): 0 | damage to plant (100=total damage to plant; 0=no damage to plant), PANMI (rate 60): 0 | damage to plant (100=total damage to plant; 0=no damage to plant), PANMI (rate 130): 0 | damage to plant (100=total damage to plant; 0=no damage to plant), PANMI (rate 250): 0 | damage to plant (100=total damage to plant; 0=no damage to plant), PANMI (rate 500): 0 | damage to plant (100=total damage to plant; 0=no damage to plant), SETFA (rate 15): 0 | damage to plant (100=total damage to plant; 0=no damage to plant), SETFA (rate 30): 0 | damage to plant (100=total damage to plant; 0=no damage to plant), SETFA (rate 60): 0 | damage to plant (100=total damage to plant; 0=no damage to plant), SETFA (rate 130): 30 | damage to plant (100=total damage to plant; 0=no damage to plant), SETFA (rate 250): 60 | damage to plant (100=total damage to plant; 0=no damage to plant), SETFA (rate 500): 90 | damage to plant (100=total damage to plant; 0=no damage to plant), SORVU (rate 15): 0 | damage to plant (100=total damage to plant; 0=no damage to plant), SORVU (rate 30): 0 | damage to plant (100=total damage to plant; 0=no damage to plant), SORVU (rate 60): 0 | damage to plant (100=total damage to plant; 0=no damage to plant), SORVU (rate 130): 0 | damage to plant (100=total damage to plant; 0=no damage to plant), SORVU (rate 250): 0 | damage to plant (100=total damage to plant; 0=no damage to plant), SORVU (rate 500): 0
